Results: patent US12358919B2, “Antibacterial compounds” (Universita' degli Studi di Siena, priority 2019, dated 2025)

How the values were obtained:
[1] = test system: Klebsiella pneumoniae ATCC 13833; assay: microbe, parasite or virus in culture; format: cell-based; conditions: K. pneumoniae ATCC 13833
How it was run: (§1)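 MICs were determined by CLSI M07 broth dilution, for each compound alone and with a fixed sub-inhibitory concentration of polymyxin E1 (colistin). Potentiation fold is the MIC alone divided by the MIC with polymyxin E.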

Escherichia coli CCUG^T = assay: microbe, parasite or virus in culture; format: cell-based; conditions: E. coli CCUG^T
How it was run: as §1

[2] = test system: Acinetobacter baumannii ATCC 17978; assay: microbe, parasite or virus in culture; format: cell-based; conditions: A. baumannii ATCC 17978
How it was run: as §1

A. baumannii ATCC 17978 = assay: Chequerboard analysis with polymyxin E1 (average FIC index); format: cell-based, Acinetobacter baumannii; conditions: compound + polymyxin E1
[3] = test system: Acinetobacter baumannii (N50 strain), multidrug-resistant clinical isolate resistant to polymyxin E1; assay: Time-kill curve analysis (bactericidal activity); format: cell-based; conditions: compound 32 mg/L + polymyxin E1 2 mg/L
Experimental: FIG. 1: bactericidal activity on Acinetobacter baumannii (N50 strain) of polymyxin E1, 2 mg/L (square); polymyxin E1, 2 mg/L+compound Ib 32 mg/L (triangles); control (circles).
Several methods were used to investigate the synergistic activity of the compounds, including (a) the determination of the MIC in the presence of a sub-inhibitory concentration of a suitable antibacterial agent, (b) the determination of the average FICI using a chequerboard analysis and (c) the time-kill curve analysis of a suitable agent (at a sub-inhibitory concentration) in the absence and presence of the pyrazolo[4,3-b]pyridin-6-carboxamide compound at a fixed concentration of 2 or 8 mg/L.
The kinetics of bacterial killing offers an additional mean to characterize the antibacterial activity of compounds, also in combination with other antimicrobial agents. Compounds or a combination thereof are defined as bactericides when the viable bacterial load is decreased by at least 3 log10 (EUCAST, cit.).
This analysis was carried with a multidrug-resistant Acinetobacter baumannii clinical isolate showing resistance to polymyxin E1. The time-kill curves were generated starting from a bacterial inoculum of 10^5 CFU/mL. Bacterial count was determined at several time intervals in the absence (control) or presence of 2 mg/L polymyxin E1 (corresponding to the resistance breakpoint, EUCAST, cit.) supplemented with 32 mg/L of compound Ib (FIG. 1).

E. coli CCUG^T = assay: Chequerboard analysis with polymyxin E1 (average FIC index); format: cell-based, Escherichia coli; conditions: compound + polymyxin E1
in vitro = format: cell-based; conditions: human
Experimental: (§2) Growth inhibition or killing of bacteria was investigated using conventional methods widely described in the scientific literature. Parameters such as the Minimum Inhibitory Concentration (MIC) were determined as described in Clinical Laboratory Standard Institute (CLSI) document M07 “Methods for Dilution Antimicrobial Susceptibility Tests for Bacteria That Grow Aerobically, 11th Edition” (2018). Synergistic activity of the compounds described in the present specification were determined by measuring the variation of the MIC's compound in the absence and presence of a sub-inhibitory concentration of a suitable antibacterial agent, such as polymyxin E1. Furthermore, the Fractional Inhibitory Concentrations (FICs) were measured using a chequerboard analysis to determine the average FIC index (FICI), whose value is known to characterize the interaction between two compounds and/or drugs (≤0.5, synergistic interaction; >0.5 and <2, no interaction, additive effect; ≥2, antagonistic interaction). Furthermore, the selectivity of the compounds was investigated by measuring their cytotoxic effect on mammalian cell lines (e.g. HeLa cells).
The selectivity and potential cytotoxic effect of antibacterial compounds is a key aspect of such drugs. […]

[4] = test system: polymyxin E1-resistant Acinetobacter baumannii (strain N50) clinical isolate; format: cell-based; conditions: A. baumannii N50 (colistin-resistant); compound + polymyxin E1
Experimental: as §2
“Chequerboard” method was used to further investigate the synergistic activity of pyrazolo[4,3-b]pyridin-6-carboxamides when this compounds are combined with polymyxin E1. […]

[5] = ratio MICcompound/MICcompound+polymyxin E
[6] = with 0.25xMIC polymyxin E1 (0.12 mg/L)

## CCCCn1c(=O)c(C(=O)NC23CC4CC(CC(C4)C2)C3)c(O)c2nn(C)cc21 [Ib, N-(Adamantan-1-yl)-4-(1-butyl)-4,5-dihydro-7-hydroxy-2-methyl-5-oxo-2H-pyrazolo[4,3-b]pyridin-6-carboxamide]
[1]; [5]
  Potentiation fold: ≥64
[1]; [6]
  MIC in presence of colistin: 8 µg/mL
[1]; Klebsiella pneumoniae, ATCC13833, compound alone, read-out: MIC
  MIC: > 512 µg/mL
Escherichia coli CCUG^T; [5]
  Potentiation fold: ≥64
Escherichia coli CCUG^T; [6]
  MIC in presence of colistin: 8 µg/mL
Escherichia coli CCUG^T; Escherichia coli, compound alone, read-out: MIC
  MIC: > 512 µg/mL
[2]; [5]
  Potentiation fold: ≥128
[2]; with 0.25xMIC polymyxin E1 (0.25 mg/L)
  MIC in presence of colistin: 4 µg/mL
[2]; Acinetobacter baumannii, ATCC17978, compound alone, read-out: MIC
  MIC: > 512 µg/mL
A. baumannii ATCC 17978
  Average FIC index: 0.29
[3]; after 30-60 min of incubation
  reduction in the bacterial viable count: more than 3 log 10
[3]; up to 24 hours
  viable count at subsequent time intervals: no viable could be detected
E. coli CCUG^T
  Average FIC index: 0.26
In vitro
  IC50 at 24 h: > 256 µg/mL
[4]
  Average FIC index: 0.30
